Reference: patent publication US20250230193A1, “CYCLIC COMPOUND HAVING SELECTIVE KRAS INHIBITORY EFFECT ON HRAS AND NRAS” (CHUGAI SEIYAKU KABUSHIKI KAISHA, priority 2022, published 2025)
*1 amine or outer side, *2 acyl side, *3 side chain or, on linkers, in order; H or OH if unused. Where a SMILES comes first, the peptide text is derived from it. Bridges are numbered along the chain shown (N, C = ends). [ ]: non-standard residue; d: D form. The star is where a group is joined. X24 = O=C([C@H](Cc1ccc(C(F)(F)F)cc1)N(CCC(F)(F)F)[*:1])[*:2]; hPhe(3-Cl-4-CF3) = N[C@@H](CCc1ccc(C(F)(F)F)c(Cl)c1)C(=O)O; X18 = C=CCCN([C@@H](Cc1ccc(C(F)(F)F)cc1)C(=O)[*:2])[*:1]; X42 = COCCCN([C@@H](Cc1ccc(C(F)(F)F)cc1)C(=O)[*:2])[*:1]; X11 = C=CCN([C@@H](Cc1ccc(C(F)(F)F)cc1)C(=O)[*:2])[*:1]; X28 = C#CCN([C@@H](Cc1ccc(C(F)(F)F)cc1)C(=O)[*:2])[*:1]; X32 = COCCN([C@@H](Cc1ccc(C(F)(F)F)cc1)C(=O)[*:2])[*:1]; NPrPhe(4-CF3) = CCCN[C@@H](Cc1ccc(C(F)(F)F)cc1)C(=O)O; X48 = C=CCCN([C@@H](Cc1ccc(C)cc1)C(=O)[*:2])[*:1]; X40 = CCCN([C@@H](Cc1ccc(OC)cc1)C(=O)[*:2])[*:1]; X50 = C=CCN([C@@H](Cc1ccc(C)cc1)C(=O)[*:2])[*:1]; NPrPhe(4-Me) = CCCN[C@@H](Cc1ccc(C)cc1)C(=O)O; NMeGly(cPent) = CN[C@H](C(=O)O)C1CCCC1; Aze(3S-Me) = C[C@H]1CN[C@@H]1C(=O)O; NMeAllylGly = C=CC[C@H](NC)C(=O)O; NMeD = CN[C@@H](CC(=O)O)C(=O)O; NMeL = CN[C@@H](CC(C)C)C(=O)O; Morpholide = C1CN(*)CCO1; NMeA = CN[C@@H](C)C(=O)O; Ac5c = NC1(C(=O)O)CCCC1; Aze = O=C(O)[C@@H]1CCN1; NEtG = CCNCC(=O)O; Sar = CNCC(=O)O

What was measured:
[1] = biological target: GDP-bound HRAS wild-type protein (Homo sapiens, UniProt P01112); experiment: Binding to HRAS by surface plasmon resonance (SPR), Single Cycle Kinetics; settings: KD ratio HRAS/KRAS, SPR
[2] = biological target: GDP-bound NRAS wild-type protein (Homo sapiens, UniProt P01111); experiment: Binding to NRAS by surface plasmon resonance (SPR), Single Cycle Kinetics; settings: KD ratio NRAS/KRAS, SPR
GDP-bound NRAS wild-type protein, sequence (P01111 whole entry): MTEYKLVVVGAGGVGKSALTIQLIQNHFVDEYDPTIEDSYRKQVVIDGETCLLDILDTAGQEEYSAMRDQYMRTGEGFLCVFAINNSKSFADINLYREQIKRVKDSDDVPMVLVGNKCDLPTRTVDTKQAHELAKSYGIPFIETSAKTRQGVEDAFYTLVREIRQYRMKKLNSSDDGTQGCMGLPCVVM

GDP-bound HRAS wild-type protein, sequence (P01112 whole entry): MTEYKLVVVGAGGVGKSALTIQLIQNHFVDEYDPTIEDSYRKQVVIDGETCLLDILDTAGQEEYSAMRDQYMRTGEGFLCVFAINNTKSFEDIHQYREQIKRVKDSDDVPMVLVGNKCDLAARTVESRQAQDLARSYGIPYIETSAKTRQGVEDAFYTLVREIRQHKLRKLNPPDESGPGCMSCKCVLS

SMILES	HRAS/KRAS (ratio of KD for GDP-bound HRAS wild-type to KD for KRAS) [1]	NRAS/KRAS (ratio of KD for GDP-bound NRAS wild-type to KD for KRAS) [2]
C=CCN1C(=O)CN(C)C(=O)CN(C)C(=O)[C@H]([C@@H](C)CC)NC(=O)[C@H](CC(C)C)N(C)C(=O)C[C@@H](C(=O)N2CCOCC2)N(C)C(=O)[C@H](C2CCCC2)N(C)C(=O)C2(CCCC2)NC(=O)[C@@H]2CCCN2C(=O)[C@H](CCc2ccc(C(F)(F)F)c(Cl)c2)NC(=O)CN(C)C(=O)[C@@H]1Cc1ccc(C(F)(F)F)cc1 [PP0128] ([NMeL]I[Sar][Sar][X11][Sar][hPhe(3-Cl-4-CF3)]P[Ac5c][NMeGly(cPent)][NMeD]-Morpholide; lactam N-11)	C (A compound having a KD ratio of 0.1 or more and less than 3 is denoted as C)	C (A compound having a KD ratio of 0.1 or more and less than 3 is denoted as C)
C=CCCN1C(=O)CN(C)C(=O)CN(C)C(=O)[C@H]([C@@H](C)CC)NC(=O)[C@H](CC(C)C)N(C)C(=O)C[C@@H](C(=O)N2CCOCC2)N(C)C(=O)[C@H](C2CCCC2)N(C)C(=O)C2(CCCC2)NC(=O)[C@@H]2CCCN2C(=O)[C@H](CCc2ccc(C(F)(F)F)c(Cl)c2)NC(=O)CN(C)C(=O)[C@@H]1Cc1ccc(C(F)(F)F)cc1 [PP0129] ([NMeL]I[Sar][Sar][X18][Sar][hPhe(3-Cl-4-CF3)]P[Ac5c][NMeGly(cPent)][NMeD]-Morpholide; lactam N-11)	C (A compound having a KD ratio of 0.1 or more and less than 3 is denoted as C)	B (a compound having 3 or more and less than 10 is denoted as B)
C#CCN1C(=O)CN(C)C(=O)CN(C)C(=O)[C@H]([C@@H](C)CC)NC(=O)[C@H](CC(C)C)N(C)C(=O)C[C@@H](C(=O)N2CCOCC2)N(C)C(=O)[C@H](C2CCCC2)N(C)C(=O)C2(CCCC2)NC(=O)[C@@H]2CCCN2C(=O)[C@H](CCc2ccc(C(F)(F)F)c(Cl)c2)NC(=O)CN(C)C(=O)[C@@H]1Cc1ccc(C(F)(F)F)cc1 [PP0130] ([NMeL]I[Sar][Sar][X28][Sar][hPhe(3-Cl-4-CF3)]P[Ac5c][NMeGly(cPent)][NMeD]-Morpholide; lactam N-11)	C (A compound having a KD ratio of 0.1 or more and less than 3 is denoted as C)	C (A compound having a KD ratio of 0.1 or more and less than 3 is denoted as C)
CC[C@H](C)[C@@H]1NC(=O)[C@H](CC(C)C)N(C)C(=O)C[C@@H](C(=O)N2CCOCC2)N(C)C(=O)[C@H](C2CCCC2)N(C)C(=O)C2(CCCC2)NC(=O)[C@@H]2CCCN2C(=O)[C@H](CCc2ccc(C(F)(F)F)c(Cl)c2)NC(=O)CN(C)C(=O)[C@H](Cc2ccc(C(F)(F)F)cc2)N(CCC(F)(F)F)C(=O)CN(C)C(=O)CN(C)C1=O [PP0131] ([NMeL]I[Sar][Sar][X24][Sar][hPhe(3-Cl-4-CF3)]P[Ac5c][NMeGly(cPent)][NMeD]-Morpholide; lactam N-11)	C (A compound having a KD ratio of 0.1 or more and less than 3 is denoted as C)	B (a compound having 3 or more and less than 10 is denoted as B)
CC[C@H](C)[C@@H]1NC(=O)[C@H](CC(C)C)N(C)C(=O)C[C@@H](C(=O)N2CCOCC2)N(C)C(=O)[C@H](C2CCCC2)N(C)C(=O)C2(CCCC2)NC(=O)[C@@H]2CCCN2C(=O)[C@H](CCc2ccc(C(F)(F)F)c(Cl)c2)NC(=O)CN(C)C(=O)[C@H](Cc2ccc(C(F)(F)F)cc2)N(CCOC)C(=O)CN(C)C(=O)CN(C)C1=O [PP0132] ([NMeL]I[Sar][Sar][X32][Sar][hPhe(3-Cl-4-CF3)]P[Ac5c][NMeGly(cPent)][NMeD]-Morpholide; lactam N-11)	C (A compound having a KD ratio of 0.1 or more and less than 3 is denoted as C)	C (A compound having a KD ratio of 0.1 or more and less than 3 is denoted as C)
CC[C@H](C)[C@@H]1NC(=O)[C@H](CC(C)C)N(C)C(=O)C[C@@H](C(=O)N2CCOCC2)N(C)C(=O)[C@H](C2CCCC2)N(C)C(=O)C2(CCCC2)NC(=O)[C@@H]2CCCN2C(=O)[C@H](CCc2ccc(C(F)(F)F)c(Cl)c2)NC(=O)CN(C)C(=O)[C@H](Cc2ccc(C(F)(F)F)cc2)N(CCCOC)C(=O)CN(C)C(=O)CN(C)C1=O [PP0133] ([NMeL]I[Sar][Sar][X42][Sar][hPhe(3-Cl-4-CF3)]P[Ac5c][NMeGly(cPent)][NMeD]-Morpholide; lactam N-11)	C (A compound having a KD ratio of 0.1 or more and less than 3 is denoted as C)	B (a compound having 3 or more and less than 10 is denoted as B)
CCCN1C(=O)[C@@H]2CCN2C(=O)[C@H](C)N(C)C(=O)[C@H]([C@@H](C)CC)NC(=O)[C@H](CC(C)C)N(C)C(=O)C[C@@H](C(=O)N2CCOCC2)N(C)C(=O)[C@H](C2CCCC2)N(C)C(=O)C2(CCCC2)NC(=O)[C@@H]2CCCN2C(=O)[C@H](CCc2ccc(C(F)(F)F)c(Cl)c2)NC(=O)CN(C)C(=O)[C@@H]1Cc1ccc(OC)cc1 [PP0134] ([NMeL]I[NMeA][Aze][X40][Sar][hPhe(3-Cl-4-CF3)]P[Ac5c][NMeGly(cPent)][NMeD]-Morpholide; lactam N-11)	B (a compound having 3 or more and less than 10 is denoted as B)	C (A compound having a KD ratio of 0.1 or more and less than 3 is denoted as C)
CCCN1C(=O)CN(C)C(=O)CN(C)C(=O)[C@H]([C@@H](C)CC)NC(=O)[C@H](CC(C)C)N(C)C(=O)C[C@@H](C(=O)N2CCOCC2)N(C)C(=O)[C@H](C2CCCC2)N(C)C(=O)C2(CCCC2)NC(=O)[C@@H]2CCCN2C(=O)[C@H](CCc2ccc(C(F)(F)F)c(Cl)c2)NC(=O)CN(C)C(=O)[C@@H]1Cc1ccc(OC)cc1 [PP0135] ([NMeL]I[Sar][Sar][X40][Sar][hPhe(3-Cl-4-CF3)]P[Ac5c][NMeGly(cPent)][NMeD]-Morpholide; lactam N-11)	C (A compound having a KD ratio of 0.1 or more and less than 3 is denoted as C)	B (a compound having 3 or more and less than 10 is denoted as B)
CCCN1C(=O)[C@@H]2[C@@H](C)CN2C(=O)[C@H](C)N(C)C(=O)[C@H]([C@@H](C)CC)NC(=O)[C@H](CC(C)C)N(C)C(=O)C[C@@H](C(=O)N2CCOCC2)N(C)C(=O)[C@H](C2CCCC2)N(C)C(=O)C2(CCCC2)NC(=O)[C@@H]2CCCN2C(=O)[C@H](CCc2ccc(C(F)(F)F)c(Cl)c2)NC(=O)CN(C)C(=O)[C@@H]1Cc1ccc(C)cc1 [PP0138] ([NMeL]I[NMeA][Aze(3S-Me)][NPrPhe(4-Me)][Sar][hPhe(3-Cl-4-CF3)]P[Ac5c][NMeGly(cPent)][NMeD]-Morpholide; lactam N-11)	C (A compound having a KD ratio of 0.1 or more and less than 3 is denoted as C)	C (A compound having a KD ratio of 0.1 or more and less than 3 is denoted as C)
C=CC[C@H]1C(=O)N(CC=C)[C@@H](Cc2ccc(C)cc2)C(=O)N(C)CC(=O)N[C@@H](CCc2ccc(C(F)(F)F)c(Cl)c2)C(=O)N2CCC[C@H]2C(=O)NC2(CCCC2)C(=O)N(C)[C@@H](C2CCCC2)C(=O)N(C)[C@H](C(=O)N2CCOCC2)CC(=O)N(C)[C@@H](CC(C)C)C(=O)N[C@@H]([C@@H](C)CC)C(=O)N(C)CC(=O)N1C [PP0139] ([NMeL]I[Sar][NMeAllylGly][X50][Sar][hPhe(3-Cl-4-CF3)]P[Ac5c][NMeGly(cPent)][NMeD]-Morpholide; lactam N-11)	C (A compound having a KD ratio of 0.1 or more and less than 3 is denoted as C)	C (A compound having a KD ratio of 0.1 or more and less than 3 is denoted as C)
C=CCCN1C(=O)[C@H](CC=C)N(C)C(=O)CN(C)C(=O)[C@H]([C@@H](C)CC)NC(=O)[C@H](CC(C)C)N(C)C(=O)C[C@@H](C(=O)N2CCOCC2)N(C)C(=O)[C@H](C2CCCC2)N(C)C(=O)C2(CCCC2)NC(=O)[C@@H]2CCCN2C(=O)[C@H](CCc2ccc(C(F)(F)F)c(Cl)c2)NC(=O)CN(C)C(=O)[C@@H]1Cc1ccc(C)cc1 [PP0140] ([NMeL]I[Sar][NMeAllylGly][X48][Sar][hPhe(3-Cl-4-CF3)]P[Ac5c][NMeGly(cPent)][NMeD]-Morpholide; lactam N-11)	B (a compound having 3 or more and less than 10 is denoted as B)	C (A compound having a KD ratio of 0.1 or more and less than 3 is denoted as C)
CCCN1C(=O)[C@@H]2[C@@H](C)CN2C(=O)[C@H](C)N(C)C(=O)[C@H]([C@@H](C)CC)NC(=O)[C@H](CC(C)C)N(C)C(=O)C[C@@H](C(=O)N2CCOCC2)N(C)C(=O)[C@H](C2CCCC2)N(C)C(=O)C2(CCCC2)NC(=O)[C@@H]2CCCN2C(=O)[C@H](CCc2ccc(C(F)(F)F)c(Cl)c2)NC(=O)CN(C)C(=O)[C@@H]1Cc1ccc(C(F)(F)F)cc1 [PP0141] ([NMeL]I[NMeA][Aze(3S-Me)][NPrPhe(4-CF3)][Sar][hPhe(3-Cl-4-CF3)]P[Ac5c][NMeGly(cPent)][NMeD]-Morpholide; lactam N-11)	B (a compound having 3 or more and less than 10 is denoted as B)	C (A compound having a KD ratio of 0.1 or more and less than 3 is denoted as C)
CCCN1C(=O)CN(C)C(=O)CN(C)C(=O)[C@H]([C@@H](C)CC)NC(=O)[C@H](CC(C)C)N(C)C(=O)C[C@@H](C(=O)N2CCOCC2)N(C)C(=O)[C@H](C2CCCC2)N(C)C(=O)C2(CCCC2)NC(=O)CN(CC)C(=O)[C@H](CCc2ccc(C(F)(F)F)c(Cl)c2)NC(=O)CN(C)C(=O)[C@@H]1Cc1ccc(C(F)(F)F)cc1 [PP0144] ([NMeL]I[Sar][Sar][NPrPhe(4-CF3)][Sar][hPhe(3-Cl-4-CF3)][NEtG][Ac5c][NMeGly(cPent)][NMeD]-Morpholide; lactam N-11)	C (A compound having a KD ratio of 0.1 or more and less than 3 is denoted as C)	B (a compound having 3 or more and less than 10 is denoted as B)
